Reference: patent US20250328351A1, “CARBONIC ANHYDRASE INHIBITORS AND ANTIBIOTICS AGAINST MULTIDRUG RESISTANT BACTERIA” (Purdue Research Foundation, priority 2018, published 2025)
Values after ≈ are worked out from the molar mass of the structure shown. Read-outs that look alike come from different tables or passages of the source.

Legend:
[1] = tested on: Bacteroides fragilis CL07T00C01 HM-709; test: MIC against human normal gut microbiota; assay type: cell-based; conditions: Table 3, BHIS broth, anaerobic, 48 hours, read-out: MIC
Method: (§1) Three different bacterial strains were used in this experiment; Bifidobacterium (anaerobic Gram positive bacteria), Bacteroides (anaerobic Gram negative bacteria) and Lactobacillus (microaerophilic Gram positive bacteria). Bifidobacterium and Bacteroides were first grown for 48 hours at 37° C., anaerobically using brain heart infusion supplemented (BHIS) agar (Brain heart infusion agar supplemented with hemin, vitamin K and L-cysteine). Lactobacillus was cultivated on MRS agar and incubated in presence of 5% CO2 for 48 hours at 37° C. Each bacterium was suspended in phosphate buffered saline (PBS) to produce a suspension with optical density that matches 0.5 McFarland standard and diluted in brain heart infusion supplemented broth (for Bifidobacterium and Bacteroides) or in MRS broth (for Lactobacillus) to achieve bacterial concentration of approximately 5×10^5 CFU/ml. Bacteria were then seeded in 96-well plates containing serial dilutions of the compounds and incubated as mentioned previously for 48 hours.

[2] = tested on: Bacteroides dorei CL02T12C06 HM-719; test: MIC against human normal gut microbiota; assay type: cell-based; conditions: Phocaeicola dorei; Table 3; BHIS broth, anaerobic, 48 hours; read-out: MIC
Method: as §1

[3] = tested on: Bifidobacterium breve JCP7499 HM 1120; test: MIC against human normal gut microbiota; assay type: cell-based; conditions: JCP7499HM1120, Table 3, BHIS broth, anaerobic, 48 hours, read-out: MIC
Method: as §1

Caco-2 cells = test: In vitro cytotoxicity, MTS assay; conditions: concentration up to 128 μg/mL; two hours incubation
Method: Method: Compounds AS005H, AS005J, AS004B, AS005K, AS005A and 005D were assayed (at concentrations of 64 and 128 μg/mL) against a human colorectal adenocarcinoma (Caco-2) cell to determine the potential toxic effect to mammalian cells in vitro. Briefly, cells were cultured in Dulbecco's Modified Eagle Medium (DMEM) supplemented with 20% fetal bovine serum (FBS), non-essential amino acids (1×), penicillin-streptomycin at 37° C. with CO2 (5%). Control cells received DMSO alone at a concentration equal to that in drug-treated cell samples. The cells were incubated with the compounds (in triplicate) in a 96-well plate at 37° C. with CO2 (5%) for two hours. The assay reagent MTS 3-(4,5-dimethylthiazol-2-yl)-5-(3-carboxymethoxyphenyl)-2-(4-sulfophenyl)-2H-tetrazolium) (Promega, Madison, WI, USA) was subsequently added and the plate was incubated for four hours. Absorbance readings (at OD490) were taken using a kinetic microplate reader (Molecular Devices, Sunnyvale, CA, USA). The quantity of viable cells after treatment with each compound was expressed as a percentage of the viability of DMSO-treated control cells (average of triplicate wells±standard deviation). The toxicity data was analyzed via a two-way ANOVA, with post hoc Dunnet's multiple comparisons test (P<0.05), utilizing GraphPad Prism 6.0 (GraphPad Software, La Jolla, CA).
Percent viable mammalian cells (measured as average absorbance ratio (test agent relative to DMSO) for cytotoxicity analysis of AS005H, AS005J, AS004B, AS005K, AS005A and 005D compounds (tested in triplicate) at 64 and 128 μg/mL against Caco-2 cells using the MTS 3-(4,5-dimethylthiazol-2-yl)-5-(3-carboxymethoxyphenyl)-2-(4-sulfophenyl)-2H-tetrazolium) assay. Dimethyl sulfoxide (DMSO) was used as a negative control to determine a baseline measurement for the cytotoxic impact of each compound. The absorbance values represent an average of a minimum of three samples analyzed for each compound. Error bars represent standard deviation values for the absorbance values. A two-way ANOVA, with post hoc Dunnet's multiple comparisons test, determined statistical difference (denoted by the asterisk) (P<0.05) between the values obtained for each compound and DMSO (negative control, used as solvent for the compounds).

[4] = tested on: Enterococcus faecalis S613 HM-334; test: MIC, broth microdilution (CLSI); assay type: cell-based; conditions: Enterococcus faecalis, read-out: MIC
Method: (§2) The minimum inhibitory concentrations (MICs) of the compounds and control drugs were determined using the broth microdilution method, according to guidelines outlined by the Clinical and Laboratory Standards Institute (CLSI). Enterococci strains were grown aerobically overnight on tryptone soya agar plates at 37° C., afterwards a bacterial solution equivalent to 0.5 McFarland standard was prepared and diluted in tryptone soy broth (TSB) to achieve a bacterial concentration of about 5×10^5 CFU/mL and seeded in 96-well well plates. Compounds and control drugs were added in the first row of the 96-well plates and serially diluted along the plates. Plates were then incubated aerobically at 37° C. for 18-20 hours. MICs reported in Table 1 are the minimum concentration of the compounds/control drugs that could inhibit completely the visual growth of the bacteria.
(§3) The minimum inhibitory concentrations (MICs) of CAIs were tested against clinical isolates of vancomycin sensitive and vancomycin resistant Enterococci strains as per the guidelines provided by the Clinical and Laboratory Standards Institute (CLSI). The selected strains of Enterococci were streaked on Tryptic Soy Agar (TSA) plates and let grow for 24 hours at 37° C. Afterwards, a bacterial solution equivalent to 0.5 McFarland standard was prepared and diluted in tryptone soy broth (TSB) or brain heart infusion broth (BHIB) to achieve a bacterial concentration of about 5×10^5 CFU/mL and seeded in 96-well well plates. Compounds and control drugs were added in the first row of the 96-well plates and serially diluted along the plates. Plates were then incubated aerobically at 37° C. for 18-20 hours. MICs reported in Table 5 are the minimum concentration of the compounds/control drugs that could inhibit completely the visual growth of the bacteria.
The minimum inhibitory concentrations (MICs) of CAIs were tested against vancomycin resistant Enterococcus faecalis—S613 HM 334 strain as per the guidelines provided by the Clinical and Laboratory Standards Institute (CLSI). The selected strain was streaked on Tryptic Soy Agar (TSA) plate and let grow for 24 hours at 37° C. […] Compounds and control drugs were added in the first row of the 96-well plates and serially diluted along the plates. Plates were then incubated aerobically at 37° C. for 18-20 hours. MICs reported in table (6) are the minimum concentration of the compounds/control drugs that could inhibit completely the visual growth of the bacteria.

VERO cells = test: In vitro cytotoxicity, MTS assay; assay type: cell-based, monkey; conditions: concentration up to 128 μg/mL; two hours incubation
Method: Toxicity assessment: Compounds AS005H, AS005J, AS004B, AS005K, AS005A and 005D were assayed (at concentrations of 64 and 128 μg/mL) against a fibroblast-like monkey kidney cell line (VERO cell) to determine the potential toxic effect in vitro. Briefly, cells were cultured in Minimum Essential Medium (MEM) supplemented with 10% fetal bovine serum (FBS), 1 mM sodium pyruvate, and penicillin-streptomycin at 37° C. with CO2 (5%). Control cells received DMSO alone at a concentration equal to that in drug-treated cell samples. The cells were incubated with the compounds (in triplicate) in a 96-well plate at 37° C. with CO2 (5%) for two hours. The assay reagent MTS 3-(4,5-dimethylthiazol-2-yl)-5-(3-carboxymethoxyphenyl)-2-(4-sulfophenyl)-2H-tetrazolium) (Promega, Madison, WI, USA) was subsequently added and the plate was incubated for four hours. Absorbance readings (at OD490) were taken using a kinetic microplate reader (Molecular Devices, Sunnyvale, CA, USA). The quantity of viable cells after treatment with each compound was expressed as a percentage of the viability of DMSO-treated control cells (average of triplicate wells±standard deviation). The toxicity data was analyzed via a two-way ANOVA, with post hoc Dunnet's multiple comparisons test (P<0.05), utilizing GraphPad Prism 6.0 (GraphPad Software, La Jolla, CA).
Percent viable mammalian cells (measured as average absorbance ratio (test agent relative to DMSO) for cytotoxicity analysis of compounds AS005H, AS005J, AS004B, AS005K, AS005A and 005D (tested in triplicates) at 64 and 128 μg/mL against VERO cells using the MTS 3-(4,5-dimethylthiazol-2-yl)-5-(3-carboxymethoxyphenyl)-2-(4-sulfophenyl)-2H-tetrazolium) assay. Dimethyl sulfoxide (DMSO) was used as a negative control to determine a baseline measurement for the cytotoxic impact of each compound. The absorbance values represent an average of a minimum of three samples analyzed for each compound. Error bars represent standard deviation values for the absorbance values.

[5] = tested on: vancomycin-resistant E. faecium; test: Mouse model of GI colonization by VRE; assay type: in vivo, C57BL/6 mice
Description: Feasibility in vivo study: AZM reduces VRE load in the intestines and faeces. The promising feature, and the specific and potent antimicrobial activity of CAIs, prompted us to evaluate the in vivo efficacy of AZM in our established mouse model of GI colonization by enterococci with features that mimic the antibiotic-induced enterococcal expansion observed in humans (Mohammad, H. et al., Int J Antimicrob Agents 2018, 51, 897-904; Abdelkhalek, A, et al., PLoS One 2018, 13, e0199710). We tested AZM (two clinical doses 10 and 20 mg/kg) in female 12-week-old C57BL/6 mice (n=5 mice per group) that were sensitized with ampicillin ([…] in drinking water) for 7 days to reduce the microbiota present in the gastrointestinal tract and colonized with 10^8 CFU/mL of vancomycin-resistant E. faecium.
We thought that the rapid absorption of AZM from the gastrointestinal tract would limit their exposure time to VRE present in the gastrointestinal tract.
Mice were treated for 8 days with 10 mg/kg of drugs by oral gavage.

E. faecium NR 31909 = conditions: oral 20 mg/kg daily for 4 days
Description: Saline was used as a negative control. Mice were euthanized on day 5 and organs (liver, spleen and kidneys) were aseptically removed and homogenized, and viable VRE were enumerated by serial dilution and plating.

[6] = tested on: Enterococcus fecalis Strain SF24413 NR31971; test: MIC, broth microdilution (CLSI); assay type: cell-based; conditions: Enterococcus, Table 7; TSB; read-out: MIC
Method: as §2

[7] = tested on: Enterococcus fecalis Strain SF 28073 - NR31972; test: MIC, broth microdilution (CLSI); assay type: cell-based; conditions: Enterococcus, Table 7; TSB; read-out: MIC
Method: as §2

[8] = tested on: Enterococcus faecium Patient #3-1 NR-31912; test: MIC, broth microdilution (CLSI); assay type: cell-based; conditions: Enterococcus faecium, Table 7; TSB; read-out: MIC
Method: as §2

[9] = tested on: Enterococcus faecium Patient #2-1 - NR-31909; test: MIC, broth microdilution (CLSI); assay type: cell-based; conditions: Enterococcus faecium, Table 7; TSB; read-out: MIC
Method: as §2, §3

[10] = tested on: Enterococcus fecalis Strain SF 24397 NR31970; test: MIC, broth microdilution (CLSI); assay type: cell-based; conditions: Enterococcus, Table 7; TSB; read-out: MIC
Method: as §2, §3

[11] = tested on: Enterococcus faecium E417 - HM-965; test: MIC, broth microdilution (CLSI); assay type: cell-based; conditions: Enterococcus faecium, E417HM965, Table 7; TSB; read-out: MIC
Method: as §2, §3

[12] = S613HM334, Table 6, TSB in presence of 4% human serum albumin

Compound | MIC [1] [µg/mL] | MIC [2] [µg/mL] | MIC [3] [µg/mL] | toxicity to Caco-2 cells (percent viable cells, MTS) (Caco-2 cells) | MIC ([4]; S613HM334, Table 1, TSB) [µg/mL] | MIC ([4]; S613HM334, Table 7, TSB) [µg/mL] | toxicity to VERO cells (percent viable cells, MTS) (VERO cells) | MIC [4, 12] [µg/mL] | VRE in feces, cecal content and ileal content compared to control mice ([5]; 10 mg/kg or 20 mg/kg once a day, feces as early as 3rd day) | VRE reduction compared with linezolid ([5]; AZM 10 and 20 mg/kg, linezolid 10 mg/kg once daily for 8 days) | mice protected against a lethal dose (survival) (E. faecium NR 31909) [%] | reduction of bacterial load in internal organs compared with linezolid (E. faecium NR 31909; liver, spleen, kidneys on day 5) | MIC ([4]; S613HM334, Table 5, BHIB) [µg/mL] | MIC ([4]; S613HM334, Table 5, TSB) [µg/mL] | MIC [6] [µg/mL] | MIC [7] [µg/mL] | MIC [8] [µg/mL] | MIC [9] [µg/mL] | MIC [10] [µg/mL] | MIC [11] [µg/mL]
CCc1ccc(C(=O)Nc2nnc(S(N)(=O)=O)s2)cc1 [CAI0017, 4-Ethyl-N-(5-sulfamoyl-1,3,4-thiadiazol-2-yl)benzamide] | > 64 | > 64 | > 64 | non-toxic | 1 (≈ 3.2 µM) | 1 (≈ 3.2 µM) | non-toxic | – | – | – | – | – | – | – | – | – | – | – | – | –
CC(C)C(=O)Nc1nnc(S(N)(=O)=O)s1 [CAI0011, N-(5-Sulfamoyl-1,3,4-thiadiazol-2-yl)isobutyramide] | > 64 | > 64 | > 64 | non-toxic | 2 (≈ 7.99 µM) | 2 (≈ 7.99 µM) | non-toxic | – | – | – | – | – | – | – | – | – | – | – | – | –
CC(C)(C)C(=O)Nc1nnc(S(N)(=O)=O)s1 [CAI0010, N-(5-Sulfamoyl-1,3,4-thiadiazol-2-yl)pivalamide] | > 64 | > 64 | > 64 | non-toxic | 0.5 (≈ 1.89 µM) | 0.125 (≈ 0.473 µM) | non-toxic | > 256 | – | – | – | – | – | – | – | – | – | – | – | –
CC(=O)Nc1nnc(S(N)(=O)=O)s1 [Acetazolamide] | > 64 | > 64 | > 64 | – | 2 (≈ 9 µM) | 2 (≈ 9 µM) | – | > 256 | significant reduction | outperformed linezolid | 100 | superior to linezolid | > 128 | 2 (≈ 9 µM) | – | – | – | – | – | –
NS(=O)(=O)c1nnc(NC(=O)C=CC2CCCCC2)s1 [CAI0019, 3-cyclohexyl-N-(5-sulfamoyl-1,3,4-thiadiazol-2-yl)propenamide] | – | – | – | – | – | 0.007 (≈ 0.0221 µM) | – | – | – | – | – | – | – | – | 0.015 (≈ 0.0474 µM) | 0.015 (≈ 0.0474 µM) | 0.007 (≈ 0.0221 µM) | 0.003 (≈ 0.00948 µM) | 0.015 (≈ 0.0474 µM) | 0.007 (≈ 0.0221 µM)
